Read-outs that look alike come from different tables or passages of the source.
How the values were obtained:
[1] = tested on: Pseudomonas aeruginosa R9 KY8516; assay: antibacterial activity (MIC), resistant strain; format: cell-based; conditions: medium pH 7.2; strain "producing kanamycin" (footnote 1); unit assumed
Method: (§1) Furthermore in the following Table 3, the antibacterial activity (MIC) of the compounds are set forth. The measurement was carried out according to the Japanese Antibiotic Medicament Standard using a medium having a pH of 7.2. Numbers of the compounds in Table 3 correspond to those in Tables 1 and 2.

[2] = tested on: Escherichia coli R18 KY-8321; assay: antibacterial activity (MIC), resistant strain; format: cell-based; conditions: medium pH 7.2; strain producing gentamicin nucleotidyltransferase and neomycin phosphotransferase II; unit assumed
Method: as §1

[3] = tested on: Pseudomonas aeruginosa R4 KY8511; assay: antibacterial activity (MIC), resistant strain; format: cell-based; conditions: medium pH 7.2; strain producing gentamicin acetyltransferase; unit assumed
Method: as §1

[4] = tested on: Escherichia coli R19 KY-8348; assay: antibacterial activity (MIC), resistant strain; format: cell-based; conditions: medium pH 7.2; strain producing gentamicin acetyltransferase; unit assumed
Method: as §1

[5] = tested on: Providencia sp. 164; assay: antibacterial activity (MIC), resistant strain; format: cell-based; conditions: medium pH 7.2; strain producing gentamicin acetyltransferase (footnote 5); unit assumed
Method: as §1

[6] = tested on: Escherichia coli 57R/W677; assay: antibacterial activity (MIC), resistant strain; format: cell-based; conditions: medium pH 7.2; strain "producing gentamicin" (footnote 4); unit assumed
Method: as §1

[7] = tested on: Klebsiella pneumniae 3020 Y60; assay: antibacterial activity (MIC), resistant strain; format: cell-based; conditions: medium pH 7.2; strain "producing gentamicin" (footnote 4); unit assumed
Method: as §1

[8] = tested on: Escherichia coli R17 Z-343; assay: antibacterial activity (MIC), resistant strain; format: cell-based; conditions: medium pH 7.2; strain "producing kanamycin" (footnote 1); unit assumed
Method: as §1

[9] = tested on: various microorganisms including resistant strains; conditions: earlier patents; cited from earlier work
[10] = tested on: Escherichia coli NIHJ-2; assay: antibacterial activity (MIC); format: cell-based; conditions: medium pH 7.2, Japanese Antibiotic Medicament Standard; unit assumed
Method: as §1

[11] = tested on: Shigella sonnei ATCC 9290; assay: antibacterial activity (MIC); format: cell-based; conditions: medium pH 7.2, Japanese Antibiotic Medicament Standard; unit assumed
Method: as §1

[12] = tested on: Pseudomonas aeruginosa BMH#10; assay: antibacterial activity (MIC); format: cell-based; conditions: medium pH 7.2, Japanese Antibiotic Medicament Standard; unit assumed
Method: as §1

[13] = tested on: Staphylococcus aureus 209-p; assay: antibacterial activity (MIC); format: cell-based; conditions: medium pH 7.2, Japanese Antibiotic Medicament Standard; unit assumed
Method: as §1

[14] = tested on: Escherichia coli 3100; assay: antibacterial activity (MIC); format: cell-based; conditions: medium pH 7.2, Japanese Antibiotic Medicament Standard; unit assumed
Method: as §1

[15] = tested on: Staphylococcus aureus Smith; assay: antibacterial activity (MIC); format: cell-based; conditions: medium pH 7.2, Japanese Antibiotic Medicament Standard; unit assumed
Method: as §1

[16] = tested on: Bacillus subtilis ATCC 6633; assay: antibacterial activity (MIC); format: cell-based; conditions: medium pH 7.2, Japanese Antibiotic Medicament Standard; unit assumed
Method: as §1

[17] = tested on: Providencia sp. KY3950; assay: antibacterial activity (MIC); format: cell-based; conditions: medium pH 7.2, Japanese Antibiotic Medicament Standard; unit assumed
Method: as §1

[18] = tested on: Klebsiella pneumoniae #8045; assay: antibacterial activity (MIC); format: cell-based; conditions: medium pH 7.2, Japanese Antibiotic Medicament Standard; unit assumed
Method: as §1

[19] = format: physicochemical
Source text: That is, Compound I-a is almost decomposed in an alkaline solution with a pH of 10 at room temperature for 2 weeks to form compounds having low activity.

[20] = strongly alkaline or alkaline conditions; cited from earlier work

Structure (SMILES) | antibacterial activity (MIC) [1] | antibacterial activity (MIC) [2] | antibacterial activity (MIC) [3] | antibacterial activity (MIC) [4] | antibacterial activity (MIC) [5] | antibacterial activity (MIC) [6] | antibacterial activity (MIC) [7] | antibacterial activity (MIC) [8] | antibacterial activity (MIC) [10] | antibacterial activity (MIC) [11] | antibacterial activity (MIC) [12] | antibacterial activity (MIC) [13] | antibacterial activity (MIC) [14] | antibacterial activity (MIC) [15] | antibacterial activity (MIC) [16] | antibacterial activity (MIC) [17] | antibacterial activity (MIC) [18] | stability under alkaline conditions (background) [20] | other results
CNC1C(O)C(OC2OC(C(C)N)CCC2N)C(N)C(O)C1OC (centres unmarked) [Compound 1, fortimicin B] | > 100 µg/mL | > 100 µg/mL | > 100 µg/mL | > 100 µg/mL | > 100 µg/mL | > 100 µg/mL | > 100 µg/mL | > 100 µg/mL | > 100 µg/mL | > 100 µg/mL | > 100 µg/mL | > 100 µg/mL | 100 µg/mL | 100 µg/mL | 25 µg/mL | > 100 µg/mL | 100 µg/mL |  | antibacterial activity (background) [9]: not as good as the other factors
COC1C(O)C(N)C(OC2OC(C(C)N)CCC2N)C(O)C1N(C)C(=O)CN (centres unmarked) [Compound 2, fortimicin A, reference compound] | 12.5 µg/mL | 3.12 µg/mL | > 100 µg/mL | > 100 µg/mL | 3.12 µg/mL | 6.25 µg/mL | 6.25 µg/mL | 1.56 µg/mL | 1.56 µg/mL | 6.25 µg/mL | 0.78 µg/mL | 0.78 µg/mL | 6.25 µg/mL | 1.56 µg/mL | 0.78 µg/mL |  | 1.56 µg/mL | slightly unstable | stability under strongly alkaline conditions ([19]; strongly alkaline conditions): slightly unstable
COC1C(O)C(N)C(OC2OC(C(C)N)CCC2N)C(O)C1N(C)C(=O)CNC(N)=O (centres unmarked) [Compound 3, fortimicin C, reference compound] | 50 µg/mL | 12.5 µg/mL | > 100 µg/mL | > 100 µg/mL | 25 µg/mL | 6.25 µg/mL | 50 µg/mL | 3.12 µg/mL | 3.12 µg/mL | 25 µg/mL | 3.12 µg/mL | 6.25 µg/mL | 12.5 µg/mL | 12.5 µg/mL | 3.12 µg/mL | 25 µg/mL | 12.5 µg/mL | slightly unstable | stability under strongly alkaline conditions [19]: slightly unstable
COC1C(O)C(N)C(OC2OC(C(C)N)CCC2NCCN)C(O)C1N(C)CCN (centres unmarked) [Compound 5, 4,2'-di-N-(2-aminoethyl)fortimicin B] | > 100 µg/mL | 6.25 µg/mL | 100 µg/mL | 25 µg/mL | 50 µg/mL | 6.25 µg/mL | 25 µg/mL | 3.12 µg/mL | 3.12 µg/mL | 12.5 µg/mL | 1.56 µg/mL | 1.56 µg/mL | 6.25 µg/mL | 1.56 µg/mL | 1.56 µg/mL | 12.5 µg/mL | 3.12 µg/mL |  | 
COC1C(O)C(N)C(OC2OC(C(C)N)CCC2NC(=O)CN)C(O)C1N(C)C[C@@H](O)CCN (stereo partly drawn) [Compound 6, 4-N-[(S)-4-amino-2-hydroxybutyl]-2'-N-glycylfortimicin B] | 25 µg/mL | 3.12 µg/mL | 50 µg/mL | 3.12 µg/mL | 6.25 µg/mL | 6.25 µg/mL | 6.25 µg/mL | 1.56 µg/mL | 3.12 µg/mL | 6.25 µg/mL | 0.78 µg/mL | 1.56 µg/mL | 6.25 µg/mL | 0.78 µg/mL | 0.78 µg/mL | 6.25 µg/mL | 1.56 µg/mL |  | 

Source: patent US4226980A, “Novel derivatives of fortimicin B and process for preparing same” (Abbott Laboratories, priority 1978, dated 1980)
